Data set [1] concerns Bleomycin-induced skin fibrosis. The data set can be described thus: Bleomycin-induced skin fibrosis, preventive dose-regimen (Example A). The class given is in vivo, mice. The settings on record: for Collagen content / Myofibroblast count / Dermal thickness: Table 2; for Collagen content: bleomycin + vehicle 1.56; for Myofibroblast count: bleomycin + vehicle 3.86; for Dermal thickness: vs vehicle-treated control, bleomycin + vehicle 1.71; for dermal thickness, hydroxyproline content of the skin and the number of dermal myofibroblasts: result in words, bleomycin-induced SSc in mice, preventive dose-regimen. The method, then: Local skin fibrosis was induced in 6-week-old, pathogen-free, female DBA/2 mice (Charles River, Sulzfeld, Germany) by repeated (every other day) subcutaneous injections of bleomycin (0.5 mg/ml in saline) in a defined area of the upper back. Control mice were injected in the same manner with saline only and served as reference. For all groups the injection volume was 100 μl. Concomitant to bleomycin treatment, the mice were treated orally with test drug or vehicle. Mice were treated a) with vehicle b) with 1 mg/kg compound of formula 27, and c) with 3 mg/kg compound of formula 27, twice a day via gavage for 21 days. After this 3 weeks treatment period, the animals were sacrificed and skin samples were obtained for analysis.
The injected skin areas were fixed in 4% formalin and embedded in paraffin. Histological sections were stained with hematoxylin and eosin for the determination of dermal thickness. The dermal thickness was determined by measuring the largest distance between the epidermal-dermal junction and the dermal-subcutaneous fat junction. The measurements were performed by an examiner blinded to the treatment of the mice.
To analyze the collagen content in skin samples, hydroxyproline assay was performed. After digestion of punch biopsies (Ø 3 mm) in 6M HCl for three hours at 120° C., chloramine T (0.06 M) was added and samples were mixed and incubated for 20 min at room temperature. 3.15 M perchloric acid and 20% p-dimethylaminobenzaldehyde were added and samples were incubated for additional 20 min at 60° C. The absorbance was determined at 557 nm.
The expression of α-smooth muscle actin (αSMA) was analyzed in paraffin embedded sections. After deparaffinization, samples were incubated with 3% bovine serum albumin followed by incubation with 3% H2O2. αSMA positive cells in mouse sections were detected by incubation with monoclonal anti-αSMA antibodies (clone 1A4, Sigma-Aldrich, Steinheim, Germany). Irrelevant isotype antibodies in the same concentration were used for control (Santa Cruz Biotechnology, Santa Cruz, Calif., USA). Antibodies labeled with horseradish peroxidase (Dako, Hamburg, Germany) were used as secondary antibodies. The expression of the NICD and αSMA was visualized with DAB peroxidase substrate solution (Sigma-Aldrich). The number of myofibroblasts was counted from 4 different sections of lesional skin for each mouse by an examiner blinded to the treatment of the mice.

Data set [2] has as its system conscious mice. The data set is described as follows: Haemodynamic effects in conscious mice with telemetric implants (Example D). It counts as in vivo. The settings on record: result in words, dosages with antifibrotic properties. As for the experimental part: The haemodynamic effects of i.e. example, the compound of formula 3, the compound of formula 4, the compound of formula 6 were analyzed in conscious mice. Telemetric implants (DSI®) were used. Signals were received with RMC1-DSI® receiver plates, compiled and analyzed with PONEMAH® physiology platform software.
The mice received either placebo (tylose), 0.3 mg/kg the compound of formula 27, 1 mg/kg the compound of formula 27, 3 mg/kg the compound of formula 27 (FIG. 1), 1.0 mg/kg the compound of formula 3, 3.0 mg/kg the compound of formula 3, 10.0 mg/kg the compound of formula 3 (FIG. 2A,2B), 1.0 mg/kg the compound of formula 4, 3.0 mg/kg the compound of formula 4, 10.0 mg/kg the compound of formula 4 (FIG. 3A/3B), 0.3 mg/kg the compound of formula 6, 1.0 mg/kg the compound of formula 6, 3.0 mg/kg, 10.0 mg/kg the compound of formula 6 (FIG. 4A/4B). The blood pressure and heart rate was monitored before and after application of placebo or the compounds.

Data set [3] concerns Bleomycin-induced skin fibrosis. The data set is described as follows: Bleomycin-induced skin fibrosis, preventive dose-regimen (Example A). The settings on record: Table 2, 0.3 mg/kg. It counts as in vivo, mice.
The test system of data set [4] is human dermal fibroblasts. The data set is described as follows: TGFbeta-induced collagen gene expression and hydroxyproline deposition in human dermal fibroblasts (Example E). The settings on record: result in words; human dermal fibroblasts in vitro. The class given is cell-based. As for the experimental part:
The effects of the compound of formula 27 and vardenafil as stand alone and in combination were analyzed in vitro in human dermal fibroblasts in vitro.

Data set [5] deals with established Bleomycin-induced skin fibrosis. The data set is described as follows: Established bleomycin-induced skin fibrosis, therapeutic dose-regimen (Example B). It counts as in vivo. The note with it: result in words; bleomycin-induced SSc in mice, therapeutic dose-regimen after established fibrosis. As for the experimental part:
Local skin fibrosis was induced in 6-week-old, pathogen-free, female DBA/2 mice (Charles River, Sulzfeld, Germany) by repeated (every other day) subcutaneous injections of bleomycin (0.5 mg/ml in saline) in a defined area of the upper back. Control mice were injected in the same manner with saline only. For all groups the injection volume was 100 μl. The study comprises 4 arms with • a) mice receiving saline injection for 6 weeks (serving as reference) • b) mice receiving Bleomycin injection for 6 weeks • c) mice receiving Bleomycin injection for 6 weeks and additional treatment with the compound of formula 27 (3 mg/kg) twice a day via gavage for the last 3 weeks • d) mice receiving the first 3 weeks bleomycin injections and the second 3 weeks saline injection.
After 6 weeks the animals were sacrificed and skin samples were obtained for analysis.
(§1) Histological analysis, hydroxyproline assay and immunohistochemistry for α-smooth muscle actin were performed as described in the Example 1 section.

The subject of data set [6] is Tsk-1 mice. The data set is described as follows: Tight skin (Tsk-1) mouse model of systemic sclerosis (Example C). It counts as in vivo. The note with it: result in words; TSK mice with established fibrosis before start of treatment. The method, then:
In addition to the mouse model of bleomycin-induced dermal fibrosis, the tight-skin (Tsk-1) mouse model of systemic sclerosis was used to evaluate the anti-fibrotic potential of test drugs. Due to a dominant mutation in fibrillin-1, the phenotype of Tsk-1 is characterized by an increased hypodermal thickness. Genotyping of Tsk-1 mice was performed by PCR with the following primers: mutated fibrillin-1/Tsk-1 forward primer: 5′-[…]-3′, reverse primer: 5′-[…]-3′. Tsk-1 mice were treated daily with test drug or vehicle, respectively, by oral gavage. In addition, a group of corresponding wild type(pa/pa) mice was treated with vehicle. The treatment was started at an age of five weeks. After five weeks of treatment, mice were sacrificed by cervical dislocation and skin samples were obtained for analysis.
as §1

The values that follow come from patent US10189856B2 (Adverio Pharma GMBH, priority 2010, dated 2019).

“Also recorded” adds a separate entry of the source.

In the case of `COC(=O)N(C)c1c(N)nc(-c2nn(Cc3ccccc3F)c3ncccc23)nc1N` [compound of formula 3, Methyl-4,6-diamino-2-[1-(2-fluorobenzyl)-1H-pyrazolo[3,4-b]pyridine-3-yl]-5-pyrimidinyl-(methyl)carbamate], in data set [1] (1 mg/kg), the Collagen content came to 1.38 x-fold change, the Myofibroblast count was 2.55 x-fold change and the Dermal thickness came to 1.38 x-fold change. Also, the “dermal thickness, hydroxyproline content of the skin and the number of dermal myofibroblasts” value (from here on “dermal thickness, hydroxyproline content”) in data set [1] was “significantly reduced; also recorded: dose dependent and significant effects”. The “haemodynamic profile (blood pressure and heart rate)” value (“haemodynamic profile” for short) in data set [2] is listed as “did not or only moderately, change”.

In the case of `COC(=O)N(C)c1c(N)nc(-c2nn(Cc3ccccc3F)c3ncc(F)cc23)nc1N`, the “haemodynamic profile” value in data set [2] was “did not or only moderately, change”.

For the molecule `COC(=O)Nc1c(N)nc(-c2nn(Cc3ccccc3F)c3ncccc23)nc1N` [compound of formula 4, Methyl-4,6-diamino-2-[1-(2-fluorobenzyl)-1H-pyrazolo[3,4-b]pyridine-3-yl]-5-pyrimidinyl-carbamate], in data set [2], the “haemodynamic profile” value is given as “did not or only moderately, change”.

`COC(=O)Nc1c(N)nc(-c2nn(Cc3ccccc3F)c3ncc(F)cc23)nc1N` [compound of formula 6, Methyl-{4,6-diamino-2-[5-fluoro-1-(2-fluorobenzyl)-1H-pyrazolo[3,4-b]pyridine-3-yl]pyrimidine-5-yl}carbamate]: the Collagen content in data set [3] (bleomycin + vehicle 1.56) is listed as 1.41 x-fold change; in data set [1] (1 mg/kg), 1.28 x-fold change; in data set [1] (3 mg/kg) it was 1.20 x-fold change. In addition, the results for the Myofibroblast count in data set [3] (bleomycin + vehicle 3.86), in data set [1] (1 mg/kg) and in data set [1] (3 mg/kg) were 3.13 x-fold change, 2.05 x-fold change and 1.49 x-fold change, respectively. Besides, the Dermal thickness in data set [3] (vs vehicle-treated control, bleomycin + vehicle 1.71) came out at 1.41 x-fold change; in data set [1] (1 mg/kg), 1.24 x-fold change; in data set [1] (3 mg/kg), 1.19 x-fold change. The “dermal thickness, hydroxyproline content” value in data set [1] is “significantly reduced; also recorded: dose dependent and significant effects”.

Regarding `Nc1nc(-c2nn(Cc3ccccc3F)c3ncccc23)ncc1C1CC1` [compound of formula 27, 3-(4-Amino-5-cyclopropylpyrimidin-2-yl)-1-(2-fluorobenzyl)-1H-pyrazolo[3,4-b]pyridine], the “TGFbeta-induced Collagen gene expression” value in data set [4] was “significantly blocked”. Moreover, the “TGFbeta-induced Hydroxyproline (HP) deposition” value in data set [4] is “significantly blocked”. Also, the “dermal thickness, hydroxyproline content” value in data set [5], in data set [1] and in data set [6] was “significantly reduced” each time. Further, in data set [2], the “haemodynamic profile” value is “did not or only moderately, change”.
